Assay results from paper PMC8347148, “An Evaluation of Human Induced Pluripotent Stem Cells to Test for Cardiac Developmental Toxicity” (International Journal of Molecular Sciences, 2021).

What was measured:
hiPSC = assay: hiPSC-EST biostatistical prediction model; design: species or system human; settings: for hiPSC (day 25 cluster) Biostatistical Embryotoxicity Classification: EST prediction model with contractile ID50, hiPSC IC50 and hFF IC50; for hiPSC (day 10 qPCR) Biostatistical Embryotoxicity Classification: EST prediction model with d10 TBX5 ID50
Excerpt: The prediction model uses a series of equations to perform a linear discriminant analysis using determined IC50 and ID50 values determined from dose–response curves. […] Importantly, half-maximal concentrations found for 5-FU and atRA were decades lower than the maximum plasma concentration (Cmax) achieved during human exposure underscoring the strong potential of these two compounds to elicit embryotoxic outcomes in vivo.
To compare the efficacy of qPCR-based embryotoxicity classifications versus contractile assay-based classifications, the ID50 values generated from 5-FU and atRA TBX5 mRNA dose–response curves were compared against the ID50 values from the contractile assay curves in the EST biostatistical model.

mESCs [1] = test system: mESCs; design: method as in PMID 14761682; settings: mESC-EST, inhibition of differentiation; previously obtained in the authors' lab; cited from earlier work
MEF2c mRNA expression = assay: day 10 qPCR of MEF2c in differentiating hiPSCs; format: cell-based, human
Excerpt: (§1) One of the main critiques of traditional developmental toxicity evaluations is the length of time and technical training required to successfully complete assays. As such, a shorter, quantifiable, and correct in vitro embryotoxicity assessment could improve throughput without sacrificing accuracy. Given the correct predictions achieved with contraction counts described above, we next investigated if our approach could be modified with a shorter, qPCR-based endpoint to determine differentiation inhibition. Here, we selected two cardiogenesis-specific transcription factors, TBX5 and MEF2c, to determine if the adverse differentiation outcomes would already be detectable as changes in TBX5 and MEF2c expression on day 10 of differentiation.
(§2) RNA was extracted from three wells per biological replicate using the protocol from NucleoSpin RNA II kit (Macherey-Nagel, Mountain View, CA, USA) and pooled. RNA from three independent differentiations was then quantified using a NanoDrop® 1000 spectrophotometer (ThermoFisher Scientific, Grand Island, NY, USA) at 260 nm. 25 ng of total RNA was used as a template for cDNA synthesis with a mastermix including 5 µL 5× reaction buffer, 1.25 µL 10 mM dNTPs, 1.25 µL 400 U/µL RNase inhibitor, 0.1 µL 200 U/µL reverse transcriptase, 0.1 µL 3 µg/µL random primer, and 1.5 µL DEPC H2O for a total of 25 µL per reaction. 25 ng cDNA transcripts were used for quantitative polymerase chain reaction (qPCR) SYBR green technology on the MyiQ cycler (Bio-Rad). The reactions were setup for 10 min of denaturing at 94 °C (initial), followed by 40 cycles of denaturing at 94 °C, and annealing at 60 °C each 45 s. The n-fold expression in target samples was calculated with the ΔΔCT method by standardizing Ct values to GAPDH expression. Primer sequences for human GAPDH were 5′-[…]-3′ and 5′-[…]-3′. Target genes were cardiogenic markers TBX5 and MEF2c. Primer sequences for human TBX5 were 5′-[…]-3′ and 5′-[…]-3′ and primer sequences for human MEF2c were 5′-[…]-3′ and 5′-[…]-3′ [27].
(§3) Half-maximal inhibitory compound doses of differentiation (ID50) and cytotoxicity (IC50) were determined from concentration-response curves using GraphPad Prism.

mESCs [2] = test system: mESCs; design: method as in PMID 14761682; settings: mESC-EST, cell viability; previously obtained in the authors' lab; cited from earlier work
TBX5 mRNA expression = assay: day 10 qPCR of TBX5 in differentiating hiPSCs; format: cell-based, human; settings: for hiPSCs (d10 TBX5) ID50: day 10, 50% reduction in TBX5 gene expression vs control
Excerpt: as §1, §2, §3

Structure (SMILES) | hiPSC (day 25 cluster) Biostatistical Embryotoxicity Classification (hiPSC) | hiPSC (day 25 cluster) Biostatistical Embryotoxicity Classification (hiPSC; listed as PenG) | hiPSC (day 10 qPCR) Biostatistical Embryotoxicity Classification (hiPSC) | hiPSC (day 10 qPCR) Biostatistical Embryotoxicity Classification (hiPSC; listed as PenG) | mESCs ID50 (mESCs [1]) [µg/mL] | effect on MEF2c mRNA expression (MEF2c mRNA expression; day 10) | mESCs IC50 (mESCs [2]) [ng/mL] | effect on TBX5 mRNA expression (TBX5 mRNA expression; day 10) | hiPSCs (d10 TBX5) ID50 (TBX5 mRNA expression) [µg/mL] | doses with steady decline in MEF2c mRNA expression (MEF2c mRNA expression; day 10) | MEF2c mRNA ID50 (MEF2c mRNA expression; day 10 of differentiation) [µg/mL] | concentrations with significant upregulation in TBX5 mRNA expression (TBX5 mRNA expression; day 10) | concentrations with dramatically reduced d10 TBX5 mRNA expression (TBX5 mRNA expression; day 10)
CC1(C)S[C@@H]2[C@H](NC(=O)Cc3ccccc3)C(=O)N2[C@H]1C(=O)O [Penicillin G, penicillin G] | Not embryotoxic | non-embryotoxic | Not embryotoxic | non-embryotoxic | 750 | remained largely unchanged | 800000 | did not significantly impact TBX5 mRNA expression | >1000 | – | – | – | –
CC1=C(/C=C/C(C)=C/C=C/C(C)=C/C(=O)O)C(C)(C)CCC1 [All-Trans Retinoic Acid, all-trans retinoic acid] | Strongly embryotoxic | – | Strongly embryotoxic | – | 0.0017 | dose-dependently downregulated | 0.09 | – | 3.28e-06 | above 1 × 10^−3 μg/mL | 0.04 | lower than 1 × 10^−6 μg/mL | –
O=c1[nH]cc(F)c(=O)[nH]1 [5-Fluorouracil, 5-fluorouracil] | Strongly embryotoxic | – | Strongly embryotoxic | – | 0.0097 | No reductions in MEF2c mRNA expression | 22 | – | 0.000179 | – | – | – | above 1 × 10^−4 μg/mL
